What all share (format): cell-based, human
The test system of one series is HET1a. Conditions: for effect on DCA-induced mitochondrial membrane depolarization: treated prior to and during DCA exposure, FIG. 1C-1D, combination at 1:5. The method, then:
MitoProbe JC-1 Assay Kit for Flow Cytometry (cat #M34152, ThermoFisher, Massachusetts, USA) was used to measure the mitochondrial membrane potential. Depending on the experimental group, cells were pre-treated with the CBG/Phytol admixture or DMSO and incubated for 2 hours at 37° C. in a CO2 incubator. Cells were then treated with DCA with the CBG/Phytol admixture or DMSO. After treatment, cell were loaded with 2 μM of JC-1 and incubated for 15 minutes at 37° C. Cytoplasmic JC-1 monomers were detected in the green spectrum (˜529 nm) while mitochondrial J-aggregates were detected in the red spectrum (˜590 nm). Results are representative of 2 and 3 independent repeats per cell line.
These concentrations of DCA are found in esophageal aspirates of patients with GERD.
Various ratios of the combination of CBG and phytol were explored to assess DCA-induced mitochondrial membrane depolarization.

The subject of series [1] is HET1A cells. As to the kind of experiment: Cell viability via XTT assay. Conditions: DCA for 24 hours, then fresh media; FIG. 4A. The method, then: Cells were cultured prior to exposure to the indicated test articles. After treatment, as indicated, cells were washed and resuspended in a phenol red-free RPMI or DMEM and subsequently treated with the XTT assay (ThermoFisher, Waltham, MA, USA) or the MTS assay (Promega, Madison, WI, USA) following manufacturer protocols.
In this example, the role of CBG and Phytol on hallmarks of apoptosis resistance is described. […] Cells were pretreated with or without CBG/Phytol and then treated with DCA or a vehicle control for 24 hours. On the following day, the cells were incubated with fresh media, without DCA, and with or without CBG and/or Phytol. Cell viability was determined via XTT assay.

Series [2] has as its system HET1A cells. Kind of series: Muse Multi-Color DNA Damage kit (ATM and H2AX activation). Conditions: preliminary screen, FIG. 1B; cannabinoid:terpene 1:5, with DCA. Here is the method: The activation of ATM and H2AX (a marker of DNA breaks) was measured using the Muse Multi-Color DNA Damage kit (MilliporeSigma, Burlington, MA, USA) according to the manufacturer's instructions. The percentage of ATM activated cells and H2AX activated cells was determined as dual activation by monitoring expression of both the ATM and γ-H2AX, using the Muse Cell Analyzer (MilliporeSigma, Burlington, MA, USA). Expression of γ-H2AX was determined by flow cytometry on an Accuri C6 flow cytometer following manufacturer protocol (MilliporeSigma, Burlington, MA, USA).
Combinations of terpenes and cannabinoids were introduced to assess the effect on DNA damage using the Muse Multicolor DNA Damage Kit (see methods for details). Based on a preliminary screen shown in FIG. 1B, it was concluded that DCA induced the highest proportion of DNA damage, along with the addition of […] (THC) containing groups, >5% vs. an untreated group.

For series [3], the system named is HET1A cells. Kind of series: Genomic instability: new copy number events on PMDA arrays. Conditions: daily treatment 14 days; DCA 100 μM; CBG/Phytol 1:5; baseline Day 0 genome. Here is the method: The impact of phytocannabinoids on acquisition of new genomic changes over time in human esophageal cells was assessed using Axiom™ Precision Medicine Diversity Arrays (PMDA; Affymetrix). HET1a cells, plated in T-150 flasks at a seeding density of 2,500 cells per cm^2, were divided into 4 experimental groups (n=2 each): (i) DMSO-treated controls, (ii) treated with 100 μM of DCA alone, (iii) treated with CBG/Phytol admixture alone, and (iv) treated with 100 μM of DCA and CBG/Phytol admixture. DCA and/or CBG/Phytol were freshly prepared daily by dissolving in DMSO and then added to the media. These cells were cultured for 14 consecutive days. […]
Based on the examples above, it was hypothesized that increased stress-induced apoptosis along with reduced DNA damage and mitochondrial disruption may be concordant to reduced genomic instability. […] DNA from cultured and Day 0 cells was extracted and analyzed using PMDA arrays (Affymetrix). Genomic instability in cultured cells was assessed by identifying new copy number events (both deletions and amplifications), using genome of “Day 0” cells as baseline. […] Compared to control cells, DCA induced a marked (>6-fold) increase in genomic instability, as assessed from the acquisition of new copy number events over a period of […]. […]

Series [4] concerns CP-A Barrett's esophagus cells. As to the kind of experiment: ROS by CM-DCFDA fluorescence after low pH and bile acid cocktail (GER). Conditions: FIG. 6F. The method, then:
The cannabinoids referenced in the following examples were purchased from Cayman Chemical and brought up to a stock concentration of 100 mM in DMSO. Terpenes were purchased from Sigma Aldrich. Bile acid cocktail consisted of an equimolar mixture of glycocholate, taurocholate, glycodeoxycholate, glycochenodeoxycholate, and deoxycholate at a final concentration of 0.2 mM. This cocktail reflects the mixture of bile acids to which the distal esophagus is ordinarily exposed during gastroesophageal reflux
Combinations of cannabinoids/terpenes were tested to determine whether they protected cells in the esophagus following acute exposure to a low pH environment (pH4.5) combined with a bile acid cocktail comprised of multiple physiologically-relevant secondary bile acids, which mimics the caustic environment during gastroesophageal reflux (GER). […] The cells were either immediately analyzed for ROS via fluorescent detection of CM-DCFDA or recovered for 24 hours and analyzed for DNA damage, via γ-H2AX. […] Furthermore, the combination of CBG and β-caryophyllene was tested in the residual cells and harvested 24 h post-treatment for assessment of DNA damage to obtain the γ-H2AX fluorescence plots in FIG. 6E. […]

In the case of `CCCCCc1cc(O)c(C/C=C(\C)CCC=C(C)C)c(O)c1` [CBG, cannabigerol], in the series with HET1a, the “effect on DCA-induced mitochondrial membrane depolarization” value is on record as “not reproduced by either compound alone in a statistically significant manner”.
Consider `C[C@H](CCC(=O)O)[C@H]1CC[C@H]2[C@@H]3CC[C@@H]4C[C@H](O)CC[C@]4(C)[C@H]3C[C@H](O)[C@]12C` [DCA, deoxycholic acid], for which the “dose sufficient to induce membrane polarization” value in the series with HET1a (acute exposure to DCA, JC-1 red/green) is 100 µM. Also, the “dosing that induced severe mitochondrial membrane depolarization and cellular apoptosis” value with HET1a (human) was “above 300 μM”. Besides, the “number of cells after DCA alone” value in the series on HET1A cells [1] was “significant reduction in number of cells by 48 hours”. The “proportion of DNA damage (% ATM and H2AX positive cells) vs. an untreated group” value in the series with HET1A cells [2] is listed as above 5%. Also, the “increase in genomic instability (new copy number events) compared to control cells” value in the series with HET1A cells [3] was above 6 fold.
`C[C@H](CCC(=O)O)[C@H]1CC[C@H]2[C@@H]3[C@@H](O)C[C@@H]4C[C@H](O)CC[C@]4(C)[C@H]3CC[C@]12C` [UDCA, ursodeoxycholic acid]: the “mitigation of the oxidative insult of GER (CM-DCFDA fluorescence), comparison with catalase and UDCA” value in series [4] is “protective effect”.
Take `C/C(=C\CO)CCC[C@H](C)CCC[C@H](C)CCCC(C)C` [phytol]: the “effect on DCA-induced mitochondrial membrane depolarization” value with HET1a is “not reproduced by either compound alone in a statistically significant manner”.

The values are drawn from patent US20250017948A1, “CANNABINOID COMPOSITIONS FOR GASTROESOPHAGEAL DISORDERS” (THE UNITED STATES GOVERNMENT AS REPRESENTED BY THE …, priority 2021, published 2025).
